Experimental data from PubChem BioAssay AID1259418 (Broad Institute, 2018).
Values joined by “and” are separate entries in the source; they are usually repeats but may differ in a detail not shown here. Identical values can stand only once. Results filed as inconclusive are left out. Active and inactive are the calls of the source.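 The calls were made as follows: active = fitted half-maximal concentration of signal decrease at or below twice the sample's top tested concentration; inconclusive = flat curve between -70 and -30 percent, or poor fit; inactive = flat within 30 percent, signal rise, or potency above limit.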

molecular target: T. gondii ME49Luc in IFN-y HeLa, luciferase, 72 h; experiment: T. gondii growth inhibition with IFN-gamma, dose response, cell-based, ME49Luc, HeLa, luciferase, 72 h (AID 1259418)

Row | SMILES | AC50
1 | COc1cccc(NC(=O)N2CC(=O)N3[C@H](CO)[C@H](c4ccc(C#CCC5CCCC5)cc4)[C@H]3C2)c1 | 12.8 µM and 10.5 µM
2 | COc1cc([C@@H]2c3cc4c(cc3C(OC3O[C@@H]5COC(C)O[C@H]5[C@H](O)[C@H]3O)C3COC(=O)[C@@H]32)OCO4)cc(OC)c1O (some centres undefined) | > 39 µM (inactive)
3 | O=C(CC1Nc2c3ccccc3nc(=S)n2C1=O)NCc1ccc2c(c1)OCO2 (centres undefined) | > 39 µM (inactive)
4 | Cc1ccc(-c2coc(-c3ccc(NS(=O)(=O)c4ccc(Br)cc4C)cc3)n2)c(C)c1 | 26.7 µM
5 | CCc1nc(OCC(=O)Nc2ccc(Cl)cc2Cl)c2ccccc2n1 | 30 µM
6 | COc1ccc(-c2nc(NC3CCN(Cc4ccccc4)CC3)c3ccccc3n2)cc1 | 26.3 µM
7 | Cc1ccc(-c2coc(-c3ccc(NS(=O)(=O)c4ccc(Br)cc4)cc3)n2)c(C)c1 | 27.9 µM
8 | CC(C)C#Cc1ccc([C@@H]2[C@@H](CO)N(C(=O)c3cccc(F)c3)[C@H]2C#N)cc1 | 14.2 µM and 27.9 µM
9 | O=C(CC1N=C2c3ccccc3N=C(SCc3ccccc3F)N2C1=O)NCc1cccs1 (centres undefined) | 18.4 µM
10 | CCc1nc(OCC(=O)Nc2ccccc2)c2ccccc2n1 | 27.7 µM
11 | Cc1cccc(-c2ccc(C3[C@@H]4CN(Cc5cccc(F)c5)C[C@H]3N4)cc2)c1 (some centres undefined) | 26.2 µM
12 | O=C(NCc1cncc2c1CCN(Cc1cccc(F)c1)C2)C1CC1 | 8.45 µM
13 | CC(C)C#Cc1ccc([C@H]2[C@@H](CO)N3C(=O)CN(C(=O)NC4CCCC4)C[C@H]23)cc1 | > 39 µM (inactive)
14 | O=C(c1cnccn1)N1CC(=O)N2[C@H](CO)[C@H](c3ccc(/C=C/c4ccccc4)cc3)[C@@H]2C1 | 24.8 µM
15 | CCOc1ccccc1-c1nc(CN(c2ccccc2OC)S(=O)(=O)c2ccccc2C)c(C)o1 | 8.83 µM
16 | NCCCCCCCCCCNS(=O)(=O)c1cccc2c(Cl)cccc12 | 21.2 µM
17 | c1ccc(-c2noc(-c3ccc(N4CCC(N5CCCCC5)CC4)nc3)n2)cc1 | 18.6 µM
18 | COc1ccc(CC(=O)Nc2ccc3c(c2)CCC(=O)N3C)c(Cl)c1 | 21.2 µM
19 | O=C(NCCc1csc(-c2ccccc2)n1)C1CCN(C(=O)Cc2cccc(F)c2)CC1 | 2.76 µM
20 | CS(=O)(=O)N1CC(=O)N2[C@H](C1)[C@@H](c1ccc(C#CCC3CCCC3)cc1)[C@@H]2CO | 19.2 µM
21 | O=C(C[C@@H]1CC[C@@H]2[C@H](COC[C@@H](O)CN2Cc2ccc(Oc3ccccc3)cc2)O1)N1CCN(c2ccccc2)CC1 | 20.7 µM
22 | Cc1nc(OCC(=O)Nc2ccc(Cl)cc2)c2ccccc2n1 | > 39 µM (inactive)
23 | O=S(=O)(c1ccc2c(c1)CCCC2)N1CCC2(CC1)NCCN=C2NCc1ccccc1F | 16.4 µM
24 | COc1ccc(-n2c(C)c([N+](=O)[O-])c3ccc(O)cc32)cc1 | 1.41 µM

Row | SMILES | AC50
25 | Cc1cc(C)c(S(=O)(=O)N2CCC3(CC2)NCCN=C3NCc2ccccc2C)cc1C | 6.27 µM
26 | Cc1cccc(CNC2=NCCNC23CCN(S(=O)(=O)c2ccc(C(C)C)cc2)CC3)c1 | 13 µM
27 | COc1ccc(C#Cc2ccc([C@@H]3[C@H]4CN(C(=O)NC(C)C)CC(=O)N4[C@H]3CO)cc2)cc1 | 9.33 µM and 7.45 µM
28 | CCOc1ccccc1N(Cc1nc(-c2ccc(OC)cc2)oc1C)S(=O)(=O)c1ccccc1 | 6.35 µM
29 | Cc1cc(C)c(S(=O)(=O)N2CCC3(CC2)NCCN=C3NCc2cc(F)cc(F)c2)cc1C | 7.83 µM
30 | Cc1nc(CCNC(=O)[C@H]2CCCN2C(=O)c2cccc(F)c2)cs1 | 29.2 µM
31 | COc1cccc(-c2nc(C)c(-c3ccc(SCc4ccccc4)nn3)s2)c1 | 12.7 µM
32 | COc1cccc(S(=O)(=O)N2CCCCN3[C@H](C2)[C@H](c2ccc(C#CCC(C)C)cc2)[C@@H]3CO)c1 | 9.96 µM and 8.54 µM
33 | O=C(Cc1ccncc1)N1CCCCN2[C@H](CO)[C@H](c3ccc(C#Cc4ccccc4F)cc3)[C@H]2C1 | 20 µM
34 | N#Cc1cccc(-c2ccc3c(c2)[C@@H]2[C@@H](CCN2S(=O)(=O)c2ccc(F)cc2)[C@H](CO)N3)c1 | 17.8 µM
35 | COc1ccc(N(Cc2nc(-c3ccc(C)cc3)oc2C)S(=O)(=O)c2ccccc2C)cc1 | 31.9 µM
36 | O=S(=O)(c1ccc2c(c1)CCCC2)N1CCC2(CC1)NCCN=C2NCc1cc(F)cc(F)c1 | 4.41 µM
37 | COc1ccc(-c2nc(NCCN(C)C3CCCCC3)c3ccccc3n2)cc1 | 3.36 µM
38 | O=C(CC1N=C2c3ccccc3N=C(SCc3cccc(Cl)c3)N2C1=O)NCCc1ccccc1 (centres undefined) | 19.3 µM
39 | Cc1ccccc1-c1nc(CN2CCN(C(=O)Nc3ccc(F)cc3)CC2)c(C)o1 | > 39 µM (inactive)
40 | COc1ccc(CNC2=NCCNC23CCN(S(=O)(=O)c2ccc(C)c(C)c2)CC3)cc1 | > 39 µM (inactive)
41 | COc1ccccc1-c1nc(CN(c2ccccc2OC)S(=O)(=O)c2ccccc2)c(C)o1 | 5.18 µM
42 | COc1cccc(-c2nc(C)c(-c3ccc(SCc4cccc(Cl)c4)nn3)s2)c1 | 11.1 µM
43 | CCCNC(=O)c1cc(-c2ccn(CC3CC3)n2)n2ccccc12 | 26.9 µM
44 | C/C=C/c1ccc([C@@H]2[C@@H](CO)N3CCCCN(CCC(F)(F)F)C[C@@H]23)cc1 | 17.4 µM
45 | Cc1ccc(CSC2=Nc3ccccc3C3=NC(CCC(=O)NCc4ccc5c(c4)OCO5)C(=O)N23)c(C)c1 (centres undefined) | 27.2 µM
46 | COc1ccc(-c2nc(NCCCN3CCCC3)c3ccccc3n2)cc1 | 14.2 µM
47 | CC(C)(O)CC(=O)NCCn1ccc2ncnc(Nc3ccc(Oc4cccc(C(F)(F)F)c4)c(Cl)c3)c21 | 24.1 µM
48 | O=C(Nc1ccc2c(c1)OCO2)N1C[C@@H]2N[C@H](C1)C2c1ccc(C=Cc2ccccc2)cc1 (some centres undefined) | 4.2 µM and 3.84 µM

Row | SMILES | AC50
49 | Cc1cc(C)cc(S(=O)(=O)N2CCC[C@@H]2C(=O)NCCc2csc(-c3ccccc3)n2)c1 | 13.5 µM
50 | O=C(Nc1ccc(F)cc1)N1CC(=O)N2[C@H](CO)[C@@H](c3ccc(-c4cccc(F)c4)cc3)[C@@H]2C1 | 19.9 µM
51 | COc1ccc(C#Cc2ccc([C@H]3[C@H]4CN(C(=O)NC(C)C)CC(=O)N4[C@H]3CO)cc2)cc1 | 18.5 µM
52 | CCCNC(=O)[C@@H]1[C@@H](CO)[C@@H]2Cn3c(ccc(/C=C/c4ccccc4)c3=O)[C@@H]2N1CC1CC1 | 18.5 µM
53 | CC(C)n1cnc2c(NCC3CC3)nc(C3CCN(C(=O)c4cccc(F)c4F)CC3)cc21 | 19.8 µM
54 | COc1ccc(-c2nc3c(s2)CN(S(=O)(=O)c2ccc(C)c(C)c2)CC3)cc1 | 20.7 µM
55 | COc1ccccc1CNC1=NCCNC12CCN(S(=O)(=O)c1ccc(Cl)s1)CC2 | 17 µM
56 | CCOc1ccccc1-c1nc(CN(c2ccc(OC)cc2)S(=O)(=O)c2ccc(C)cc2)c(C)o1 | 10.7 µM
57 | O=C(CCC1N=C2c3ccccc3N=C(SCc3cccc(F)c3)N2C1=O)NCc1ccccc1 (centres undefined) | 27.4 µM
58 | CCOc1ccccc1N(Cc1nc(-c2ccccc2)oc1C)S(=O)(=O)c1ccccc1 | 7.75 µM
59 | CCOc1ccccc1N(Cc1nc(-c2ccc(C)cc2)oc1C)S(=O)(=O)c1cccs1 | 9.38 µM
60 | Cc1oc(-c2cccc(Cl)c2)nc1CN1CCN(C(=O)Nc2ccc(Cl)cc2)CC1 | 22.4 µM
61 | COc1cccc(NC(=O)N2CC(=O)N3[C@@H](CO)[C@H](c4ccc(C#CCC5CCCC5)cc4)[C@@H]3C2)c1 | 20 µM
62 | O=S(=O)(c1ccccc1)N1CCc2c([nH]c3ccccc23)C1c1cc(F)ccc1F (centres undefined) | 12.6 µM
63 | CNC(=O)NCC1CCC2(CCN(Cc3ccccc3)CC2)CO1 (centres undefined) | 26.3 µM
64 | Cc1ccc(S(=O)(=O)N2CCC3(CC2)NCCN=C3NCc2ccccc2F)cc1C | 22.5 µM
65 | Cc1ccccc1-c1ccc(C2[C@@H]3CN(Cc4cncnc4)C[C@H]2N3)cc1 (some centres undefined) | 19 µM
66 | COc1ccc(CNC(=O)COc2nc(C)nc3ccccc23)cc1 | > 39 µM (inactive)
67 | N#C[C@@H]1[C@@H](c2ccc(C#Cc3cccnc3)cc2)[C@@H](CO)N1C(=O)NC1CCCCC1 | 13.6 µM
68 | O=C1CNC[C@H]2[C@@H](c3ccc(C#Cc4cccnc4)cc3)[C@@H](CO)N12 | 26.8 µM
69 | COC1(C)CC2C(CC1OC(=O)c1cc([N+](=O)[O-])cc([N+](=O)[O-])c1)C2(C)C (centres undefined) | 12.4 µM
70 | Cc1ccc2c(c1)c(Cn1cc(-c3sccc3C)nn1)nn2C | 20.2 µM and 28.7 µM
71 | COc1cc(CN2C[C@@H]3N[C@H](C2)C3c2ccc(-c3ccc(C#N)cc3)cc2)cc(OC)c1 (some centres undefined) | 6.02 µM and 7.29 µM and 16.7 µM
72 | Cc1ccc(CSC2=Nc3ccccc3C3=NC(CCC(=O)NCc4cccs4)C(=O)N23)c(C)c1 (centres undefined) | 21.4 µM

Row | SMILES | AC50
73 | Fc1cccnc1OC1COC2(CCN(Cc3ccsc3)CC2)C1 (centres undefined) | 24.8 µM
74 | Cc1oc(-c2cccc(Cl)c2)nc1CN1CCN(C(=O)Nc2ccc(F)cc2)CC1 | 24.1 µM
75 | COc1ccc(-c2nc(CSc3nc4c(c(=O)[nH]3)CN(Cc3ccc(F)cc3)CC4)c(C)o2)cc1 | 23.2 µM
76 | CCc1ccc(S(=O)(=O)N2CCC3(CC2)NCCN=C3NCc2cc(F)cc(F)c2)cc1 | 6.6 µM
77 | Cc1ccc(S(=O)(=O)N2CCC3(CC2)NCCN=C3NCc2cc(F)cc(F)c2)cc1C | 30.1 µM
78 | CC(C)Cc1ccc(S(=O)(=O)N2CCC3(CC2)NCCN=C3NCc2ccc3c(c2)OCO3)cc1 | 5.76 µM
79 | Cc1cccc(NC(=O)COc2nc(C)nc3ccccc23)c1 | 32 µM
80 | Cc1ccc(S(=O)(=O)N2CCC3(CC2)NCCN=C3NC2CCCCCC2)cc1C | 18.6 µM
81 | CC(C)c1ccc(S(=O)(=O)N2CCC3(CC2)NCCN=C3NCc2ccc3c(c2)OCO3)cc1 | 33.6 µM
82 | COc1ccc(-c2nc(CN(c3cccc(OC)c3)S(=O)(=O)c3ccc(C)cc3)c(C)o2)cc1 | 8.49 µM
83 | Cc1ccc(-c2csc(-c3cccn3CC(=O)NCCCN3CCCC(C)C3)n2)cc1 (centres undefined) | 17.2 µM
84 | Cc1ccc(-c2nc3c(s2)CN(C(=O)Nc2ccc(C)cc2C)CC3)cc1 | 35 µM
85 | CCN(C[C@@H]1N[C@@H](CO)[C@H]1c1ccc(-c2ccc(F)cc2)cc1)C(=O)CN(C)C | 21.3 µM
86 | CCCNC(=O)C[C@H]1CC[C@H]2[C@@H](COC[C@@H](O)CN2C(=O)Nc2ccc(Cl)c(Cl)c2)O1 | 25.9 µM
87 | O=C(Cc1ccccn1)N1CC(=O)N2[C@H](CO)[C@@H](c3ccc(C#CCC4CCCC4)cc3)[C@H]2C1 | 15.8 µM
88 | CCOC(=O)c1ccc(NC(=O)N2CCN(Cc3nc(-c4ccc(C)cc4)oc3C)CC2)cc1 | 37.2 µM
89 | CCc1cc(C(=O)Nc2ccc(C)cc2-c2cc(C)[nH]n2)c2c(C)noc2n1 | 11.8 µM
90 | Cc1ccc(-c2nc(Cn3c(=O)c4c(C)cc(C)nc4n(-c4ccccc4)c3=O)c(C)o2)cc1 | 30.9 µM
91 | O=C1c2c(O)ccc(O)c2C(=O)c2c(NCCNCCO)ccc(NCCNCCO)c21 | 0.128 µM
92 | CCOc1ccccc1-c1nc(CN(c2cccc(OC)c2)S(=O)(=O)c2ccc(C)cc2)c(C)o1 | 9.59 µM
93 | COc1cccc(NC(=O)N2CCN(Cc3nc(-c4ccc(C)cc4)oc3C)CC2)c1 | 22 µM
94 | CCCCCCCCCCCCCCCC[n+]1ccccc1 | 11.5 µM
